Reference: patent US20240293413A1, “COMPOUND AND METHOD FOR TREATING CHEMOTHERAPY-RELATED GASTROINTESTINAL SIDE EFFECTS” (ONQUALITY PHARMACEUTICALS CHINA LTD., priority 2021, published 2024)

Experiments:
[1] = test system: diarrhea caused by a chemotherapeutic agent in Balb/c mice; test: Examples 382-405 (Table 7): various administration modes of the CDK inhibitor, relief of diarrhea caused by a chemotherapeutic agent; format: in vivo; conditions: for relief of diarrhea by oral, injection and local administration: diarrhea caused by docetaxel, carboplatin, gemcitabine, and gemcitabine plus carboplatin, under certain conditions, effect of oral administration most significant
Description: Balb/c mice were fed for 1 week, and then divided into groups. The experiment was divided into a control group, a chemotherapeutic agent group, CDK inhibitor groups (including an oral administration group of a CDK inhibitor, an intraperitoneal injection group of a CDK inhibitor, an intramuscular injection group of a CDK inhibitor, a local administration group of a CDK inhibitor), each of which comprised 10 mice, to perform the administration experiment, for which the administration dosage, mode, time and frequency were shown in Table 7. The control group: being administered with the same solvent as that used in the CDK inhibitor group (the time and mode were shown in Table 7), and then being injected/intragastrically administered with the same solvent as that used in the chemotherapeutic agent group (the administration mode was shown in Table 7): the chemotherapeutic agent group: being administered with the same solvent as that used in the CDK inhibitor group (the time and mode were shown in Table 7), and then being injected/intragastrically administered with the chemotherapeutic agent (the type, administration mode and dosage were shown in Table 7): the oral administration group of the CDK inhibitor: being intragastrically administered with the CDK inhibitor (the time was shown in Table 7), and then being administered with the chemotherapeutic agent (the mode and dosage were shown in Table 7): the intraperitoneal injection group of the CDK inhibitor: being intraperitoneally injected with the CDK inhibitor (the time was shown in Table 7), and then being administered with the chemotherapeutic agent (the mode and dosage were shown in Table 7): the intramuscular injection group of the CDK inhibitor: being intramuscularly injected with the CDK inhibitor (the time was shown in Table 7), and then being administered with the chemotherapeutic agent (the mode and dosage were shown in Table 7); and the local administration group of the CDK inhibitor: the hair on the abdomen of mice was shaved (about 2 cm*2 cm), being applied with the CDK inhibitor (the time was shown in Table 7), and then being administered with the chemotherapeutic agent (the mode and dosage were shown in Table 7).
The diarrhea grading of mice was observed and recorded every day.

[2] = test system: constipation caused by a chemotherapeutic agent in Balb/c mice; test: Examples 406-443 (Table 8): various administration modes of the CDK inhibitor, relief of constipation caused by a chemotherapeutic agent; format: in vivo; conditions: for improvement of constipation by oral administration, intraperitoneal injection, intramuscular injection, local administration: constipation caused by doxorubicin, etoposide, etoposide plus cisplatin, carboplatin, gemcitabine, gemcitabine plus carboplatin, under certain conditions, oral most significant;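 for Relative remission rate of oral administration: percent of treated mice relieved versus chemotherapy group by feces reduction rate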;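 for Relative remission rate of other administration mode: percent of treated mice relieved versus chemotherapy group by feces reduction rate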
Procedure, shortened: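 Balb/c mice (10 per group) received the CDK inhibitor orally, intravenously via the tail vein, intraperitoneally, intramuscularly, or topically on shaved abdominal skin, followed by a chemotherapeutic agent; vehicle groups served as controls. Feces amount over 3 h was recorded daily. Feces reduction rate was calculated relative to the control group.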

## CN(C)C(=O)c1cc2cnc(Nc3ccc(N4CCNCC4)cn3)nc2n1C1CCCC1 [Ribociclib]
[1]; Example 389, Carboplatin (CBP) intraperitoneal injection 120 mg/kg single, CDK inhibitor intraperitoneal injection 200 mg/kg single, 0.5 h before, cycle 10 days
  Relative remission rate of other administration mode: 10%
[1]; Example 389, Carboplatin (CBP) intraperitoneal injection 120 mg/kg single, CDK inhibitor oral 200 mg/kg single, 0.5 h before, cycle 10 days
  Relative remission rate of oral administration: 30%
[1]; Example 390, Carboplatin (CBP) intraperitoneal injection 120 mg/kg single, CDK inhibitor intraperitoneal injection 200 mg/kg single, 4 h before, cycle 10 days
  Relative remission rate of other administration mode: 10%
[1]; Example 390, Carboplatin (CBP) intraperitoneal injection 120 mg/kg single, CDK inhibitor oral 200 mg/kg single, 4 h before, cycle 10 days
  Relative remission rate of oral administration: 50%
[1]; Example 391, Carboplatin (CBP) intraperitoneal injection 120 mg/kg single, CDK inhibitor intraperitoneal injection 200 mg/kg single, 8 h before, cycle 10 days
  Relative remission rate of other administration mode: 10%
[1]; Example 391, Carboplatin (CBP) intraperitoneal injection 120 mg/kg single, CDK inhibitor oral 200 mg/kg single, 8 h before, cycle 10 days
  Relative remission rate of oral administration: 50%
[1]; Example 392, Carboplatin (CBP) intraperitoneal injection 120 mg/kg single, CDK inhibitor intraperitoneal injection 200 mg/kg single, 12 h before, cycle 10 days
  Relative remission rate of other administration mode: 20%
[1]; Example 392, Carboplatin (CBP) intraperitoneal injection 120 mg/kg single, CDK inhibitor oral 200 mg/kg single, 12 h before, cycle 10 days
  Relative remission rate of oral administration: 40%
[1]; Example 393, Carboplatin (CBP) intraperitoneal injection 120 mg/kg single, CDK inhibitor intraperitoneal injection 200 mg/kg single, 24 h before, cycle 10 days
  Relative remission rate of other administration mode: 10%
[1]; Example 393, Carboplatin (CBP) intraperitoneal injection 120 mg/kg single, CDK inhibitor oral 200 mg/kg single, 24 h before, cycle 10 days
  Relative remission rate of oral administration: 40%
[1]; Example 401, Gemcitabine (GEM) oral administration 300 mg/kg single, CDK inhibitor local administration 100 mg/kg single, 24 h before, cycle 8 days
  Relative remission rate of other administration mode: 20%
[1]; Example 401, Gemcitabine (GEM) oral administration 300 mg/kg single, CDK inhibitor oral 100 mg/kg single, 24 h before, cycle 8 days
  Relative remission rate of oral administration: 50%
[1]
  relief of diarrhea by oral, injection and local administration: can relieve diarrhea
[2]; Example 424, Carboplatin intraperitoneal injection 120 mg/kg single, CDK inhibitor intraperitoneal injection 200 mg/kg single, 0.5 h before, cycle 10 days
  Relative remission rate of other administration mode: 10%
[2]; Example 424, Carboplatin intraperitoneal injection 120 mg/kg single, CDK inhibitor oral 200 mg/kg single, 0.5 h before, cycle 10 days
  Relative remission rate of oral administration: 20%
[2]; Example 425, Carboplatin intraperitoneal injection 120 mg/kg single, CDK inhibitor intraperitoneal injection 200 mg/kg single, 4 h before, cycle 10 days
  Relative remission rate of other administration mode: 10%
[2]; Example 425, Carboplatin intraperitoneal injection 120 mg/kg single, CDK inhibitor oral 200 mg/kg single, 4 h before, cycle 10 days
  Relative remission rate of oral administration: 30%
[2]; Example 426, Carboplatin intraperitoneal injection 120 mg/kg single, CDK inhibitor intraperitoneal injection 200 mg/kg single, 8 h before, cycle 10 days
  Relative remission rate of other administration mode: 20%
[2]; Example 426, Carboplatin intraperitoneal injection 120 mg/kg single, CDK inhibitor oral 200 mg/kg single, 8 h before, cycle 10 days
  Relative remission rate of oral administration: 50%
[2]; Example 427, Carboplatin intraperitoneal injection 120 mg/kg single, CDK inhibitor intraperitoneal injection 200 mg/kg single, 12 h before, cycle 10 days
  Relative remission rate of other administration mode: 20%
[2]; Example 427, Carboplatin intraperitoneal injection 120 mg/kg single, CDK inhibitor oral 200 mg/kg single, 12 h before, cycle 10 days
  Relative remission rate of oral administration: 50%
[2]; Example 428, Carboplatin intraperitoneal injection 120 mg/kg single, CDK inhibitor intraperitoneal injection 200 mg/kg single, 24 h before, cycle 10 days
  Relative remission rate of other administration mode: 10%
[2]; Example 428, Carboplatin intraperitoneal injection 120 mg/kg single, CDK inhibitor oral 200 mg/kg single, 24 h before, cycle 10 days
  Relative remission rate of oral administration: 40%
[2]; Example 435, Gemcitabine oral administration 300 mg/kg single, CDK inhibitor local administration 100 mg/kg single, 24 h before, cycle 8 days
  Relative remission rate of other administration mode: 20%
[2]; Example 435, Gemcitabine oral administration 300 mg/kg single, CDK inhibitor oral 100 mg/kg single, 24 h before, cycle 8 days
  Relative remission rate of oral administration: 50%
[2]
  improvement of constipation by oral administration, intraperitoneal injection, intramuscular injection, local administration: can significantly improve constipation

## CN1CCN(c2ccc(Nc3ncc4cc5n(c4n3)C3(CCCCC3)CNC5=O)nc2)CC1 [Trilaciclib (G1T28), Trilaciclib]
[1]; Example 395, Carboplatin (CBP) oral administration 200 mg/kg single, CDK inhibitor local administration 100 mg/kg single, 24 h before, cycle 10 days
  Relative remission rate of other administration mode: 20%
[1]; Example 395, Carboplatin (CBP) oral administration 200 mg/kg single, CDK inhibitor oral 100 mg/kg single, 24 h before, cycle 10 days
  Relative remission rate of oral administration: 60%
[1]; Example 402, Gemcitabine (GEM) intramuscular injection 120 mg/kg single, CDK inhibitor intramuscular injection 50 mg/kg single, 24 h before, cycle 8 days
  Relative remission rate of other administration mode: 10%
[1]; Example 402, Gemcitabine (GEM) intramuscular injection 120 mg/kg single, CDK inhibitor oral 50 mg/kg single, 24 h before, cycle 8 days
  Relative remission rate of oral administration: 40%
[1]; Example 404, Gemcitabine and carboplatin intraperitoneal injection 120 (G) 100 (C) mg/kg single, CDK inhibitor intramuscular injection 100 mg/kg single, 12 h before, cycle 8 days
  Relative remission rate of other administration mode: 20%
[1]; Example 404, Gemcitabine and carboplatin intraperitoneal injection 120 (G) 100 (C) mg/kg single, CDK inhibitor oral 150 mg/kg single, 12 h before, cycle 8 days
  Relative remission rate of oral administration: 60%
[1]; Example 405, Gemcitabine and carboplatin intraperitoneal injection 120 (G) 100 (C) mg/kg single, CDK inhibitor intramuscular injection 100 mg/kg single, 24 h before, cycle 8 days
  Relative remission rate of other administration mode: 10%
[1]; Example 405, Gemcitabine and carboplatin intraperitoneal injection 120 (G) 100 (C) mg/kg single, CDK inhibitor oral 150 mg/kg single, 24 h before, cycle 8 days
  Relative remission rate of oral administration: 50%
[1]
  relief of diarrhea by oral, injection and local administration: can relieve diarrhea
[2]; Example 411, Doxorubicin (Dox) intravenous injection 12 mg/kg single, CDK inhibitor intraperitoneal injection 100 mg/kg single, 24 h before, cycle 8 days
  Relative remission rate of other administration mode: 10%
[2]; Example 411, Doxorubicin (Dox) intravenous injection 12 mg/kg single, CDK inhibitor oral 100 mg/kg single, 24 h before, cycle 8 days
  Relative remission rate of oral administration: 30%
[2]; Example 421, Etoposide and cisplatin intraperitoneal injection 50€ 5 mg/kg single, CDK inhibitor intravenous injection 100 mg/kg single, 24 h before, cycle 7 days
  Relative remission rate of other administration mode: 10%
[2]; Example 421, Etoposide and cisplatin intraperitoneal injection 50€ 5 mg/kg single, CDK inhibitor oral 150 mg/kg single, 24 h before, cycle 7 days
  Relative remission rate of oral administration: 20%
[2]; Example 436, Gemcitabine intramuscular injection 120 mg/kg single, CDK inhibitor intramuscular injection 100 mg/kg single, 24 h before, cycle 8 days
  Relative remission rate of other administration mode: 10%
[2]; Example 436, Gemcitabine intramuscular injection 120 mg/kg single, CDK inhibitor oral 100 mg/kg single, 24 h before, cycle 8 days
  Relative remission rate of oral administration: 40%
[2]; Example 438, Gemcitabine and Carboplatin intravenous injection 120 (G) 100 (C) mg/kg single, CDK inhibitor intraperitoneal injection 100 mg/kg single, 12 h before, cycle 8 days
  Relative remission rate of other administration mode: 20%
[2]; Example 438, Gemcitabine and Carboplatin intravenous injection 120 (G) 100 (C) mg/kg single, CDK inhibitor oral 100 mg/kg single, 12 h before, cycle 8 days
  Relative remission rate of oral administration: 50%
[2]; Example 439, Gemcitabine and Carboplatin intravenous injection 120 (G) 100 (C) mg/kg single, CDK inhibitor intraperitoneal injection 100 mg/kg single, 24 h before, cycle 8 days
  Relative remission rate of other administration mode: 20%
[2]; Example 439, Gemcitabine and Carboplatin intravenous injection 120 (G) 100 (C) mg/kg single, CDK inhibitor oral 100 mg/kg single, 24 h before, cycle 8 days
  Relative remission rate of oral administration: 50%
[2]
  improvement of constipation by oral administration, intraperitoneal injection, intramuscular injection, local administration: can significantly improve constipation
